The values that follow come from ChEMBL document CHEMBL5465560, “Selectivity Literature for EUbOPEN Chemogenomic Library” (2024).

The target in test [1] is MAP kinase-interacting serine/threonine-protein kinase 1 (Homo sapiens) (UniProt Q9BUB5). Nature of the test: Selectivity interaction (Ambit KINOMEscan and KiNATiv profiling in Jurkat cells) EUB0000090b MKNK1. The test is classed as cell-based. The following applies: at 1 µM.
The target of test [2] is Serine/threonine-protein kinase SIK1 (Homo sapiens) (UniProt P57059). To be noted: at 10 µM.
Test [3] addresses Rho-associated protein kinase 2 (Homo sapiens, UniProt O75116). Briefly: Selectivity interaction (KinomeScan (DiscoverX)) EUB0001079a ROCK2. The following applies: at 1 µM.
Test [4] deals with Sigma non-opioid intracellular receptor 1 (Homo sapiens) (UniProt Q99720). Briefly: Selectivity interaction (Eurofins CEREP Diversity Profile (receptors and ion channels)) EUB0000279b SIGMAR1. To be noted: at 10 µM.
Test [5] has as its target T1, Protein kinase C zeta type (Homo sapiens) (UniProt Q05513).
T1 sequence (whole entry): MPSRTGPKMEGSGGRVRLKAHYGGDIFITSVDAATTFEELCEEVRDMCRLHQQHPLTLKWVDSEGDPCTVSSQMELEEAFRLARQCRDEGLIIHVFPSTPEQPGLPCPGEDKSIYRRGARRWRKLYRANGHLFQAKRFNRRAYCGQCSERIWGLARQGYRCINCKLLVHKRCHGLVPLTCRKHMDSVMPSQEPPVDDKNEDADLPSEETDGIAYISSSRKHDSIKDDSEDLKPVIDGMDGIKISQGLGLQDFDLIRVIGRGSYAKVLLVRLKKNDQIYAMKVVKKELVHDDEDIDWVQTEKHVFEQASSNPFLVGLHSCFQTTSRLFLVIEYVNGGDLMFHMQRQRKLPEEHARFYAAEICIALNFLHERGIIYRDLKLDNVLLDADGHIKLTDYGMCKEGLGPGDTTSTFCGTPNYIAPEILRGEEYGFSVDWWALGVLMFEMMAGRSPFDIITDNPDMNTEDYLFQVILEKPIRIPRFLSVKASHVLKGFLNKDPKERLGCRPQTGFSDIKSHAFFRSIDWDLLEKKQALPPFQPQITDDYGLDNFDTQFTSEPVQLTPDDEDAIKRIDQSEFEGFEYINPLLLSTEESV
Briefly: Selectivity interaction (Kinase panel (Z-LYTE Assay)) EUB0001632a PRKCZ. To be noted: at 10 µM.

Test [6] addresses T2, Histone-lysine N-methyltransferase SUV39H1 (Homo sapiens) (UniProt O43463).
T2 sequence (whole entry): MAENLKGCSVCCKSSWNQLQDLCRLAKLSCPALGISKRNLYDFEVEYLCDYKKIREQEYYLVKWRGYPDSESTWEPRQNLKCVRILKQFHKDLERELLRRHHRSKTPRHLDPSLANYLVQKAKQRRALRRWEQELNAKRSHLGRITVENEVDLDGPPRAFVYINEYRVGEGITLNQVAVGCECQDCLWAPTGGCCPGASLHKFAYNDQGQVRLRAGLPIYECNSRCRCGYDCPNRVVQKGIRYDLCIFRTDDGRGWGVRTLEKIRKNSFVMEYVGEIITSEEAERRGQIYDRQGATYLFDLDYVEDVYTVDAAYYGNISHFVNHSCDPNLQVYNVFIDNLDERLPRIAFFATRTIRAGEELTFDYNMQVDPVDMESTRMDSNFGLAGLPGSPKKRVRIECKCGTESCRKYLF
The following applies: at 1 µM.

Test [7] concerns the target Death-associated protein kinase 3 (Homo sapiens) (UniProt O43293). Briefly: Selectivity interaction (KinomeScan (DiscoverX)) EUB0000607a DAPK3. The following applies: at 10 µM.
The target in test [8] is Microtubule-associated serine/threonine-protein kinase 3 (Homo sapiens) (UniProt O60307). Nature of the test: Selectivity interaction (ActivX KiNativ screen (kinase selectivity in THP-1 cell lysates)) EUB0000639a MAST3. The test is classed as subcellular. The following applies: lysate.
Test [9] has as its target Fibroblast growth factor receptor 2 (Homo sapiens) (UniProt P21802). Briefly: Selectivity interaction (Kinase panel (Invitrogen)) EUB0000639a FGFR2. To be noted: at 200 nM.
The target in test [10] is T3, Atypical kinase COQ8B, mitochondrial (Homo sapiens) (UniProt Q96D53).
T3 sequence (whole entry): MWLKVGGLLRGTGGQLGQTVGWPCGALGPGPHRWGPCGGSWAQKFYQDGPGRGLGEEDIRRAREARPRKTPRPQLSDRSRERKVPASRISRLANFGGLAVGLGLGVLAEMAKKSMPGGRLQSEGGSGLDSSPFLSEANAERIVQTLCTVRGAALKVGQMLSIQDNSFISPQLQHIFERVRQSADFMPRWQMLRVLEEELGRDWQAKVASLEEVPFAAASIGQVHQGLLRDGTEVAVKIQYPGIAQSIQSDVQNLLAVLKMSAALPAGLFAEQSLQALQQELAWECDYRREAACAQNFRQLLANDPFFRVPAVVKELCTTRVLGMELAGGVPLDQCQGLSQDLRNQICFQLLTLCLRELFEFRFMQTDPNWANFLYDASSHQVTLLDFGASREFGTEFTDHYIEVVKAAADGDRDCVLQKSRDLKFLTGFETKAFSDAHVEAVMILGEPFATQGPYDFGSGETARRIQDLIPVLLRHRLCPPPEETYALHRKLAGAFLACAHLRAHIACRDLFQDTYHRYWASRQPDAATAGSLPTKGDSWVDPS
Nature of the test: Selectivity interaction (KinomeScan (DiscoverX)) EUB0000595a ADCK4. To be noted: at 10 µM.

The target in test [11] is Platelet-derived growth factor receptor alpha (Homo sapiens, UniProt P16234). Briefly: Selectivity interaction (KinomeScan (DiscoverX)) EUB0001619a PDGFRA. To be noted: at 1 µM.
Test [12] concerns the target Mitogen-activated protein kinase 14 (Homo sapiens, UniProt Q16539). Nature of the test: Selectivity interaction (ActivX KiNativ screen (ex vivo kinase selectivity in human PBMCs)) EUB0001619a MAPK14. To be noted: PBMC, at 1 µM. It counts as cell-based.
Test [13] has as its target Serine/threonine-protein kinase 24 (Homo sapiens) (UniProt Q9Y6E0). Nature of the test: Selectivity interaction (KinomeScan (DiscoverX)) EUB0000618a STK24. The following applies: at 10 µM.

Some results are limits rather than exact numbers.

Sequence of Microtubule-associated serine/threonine-protein kinase 3 (Homo sapiens) (O60307 whole entry): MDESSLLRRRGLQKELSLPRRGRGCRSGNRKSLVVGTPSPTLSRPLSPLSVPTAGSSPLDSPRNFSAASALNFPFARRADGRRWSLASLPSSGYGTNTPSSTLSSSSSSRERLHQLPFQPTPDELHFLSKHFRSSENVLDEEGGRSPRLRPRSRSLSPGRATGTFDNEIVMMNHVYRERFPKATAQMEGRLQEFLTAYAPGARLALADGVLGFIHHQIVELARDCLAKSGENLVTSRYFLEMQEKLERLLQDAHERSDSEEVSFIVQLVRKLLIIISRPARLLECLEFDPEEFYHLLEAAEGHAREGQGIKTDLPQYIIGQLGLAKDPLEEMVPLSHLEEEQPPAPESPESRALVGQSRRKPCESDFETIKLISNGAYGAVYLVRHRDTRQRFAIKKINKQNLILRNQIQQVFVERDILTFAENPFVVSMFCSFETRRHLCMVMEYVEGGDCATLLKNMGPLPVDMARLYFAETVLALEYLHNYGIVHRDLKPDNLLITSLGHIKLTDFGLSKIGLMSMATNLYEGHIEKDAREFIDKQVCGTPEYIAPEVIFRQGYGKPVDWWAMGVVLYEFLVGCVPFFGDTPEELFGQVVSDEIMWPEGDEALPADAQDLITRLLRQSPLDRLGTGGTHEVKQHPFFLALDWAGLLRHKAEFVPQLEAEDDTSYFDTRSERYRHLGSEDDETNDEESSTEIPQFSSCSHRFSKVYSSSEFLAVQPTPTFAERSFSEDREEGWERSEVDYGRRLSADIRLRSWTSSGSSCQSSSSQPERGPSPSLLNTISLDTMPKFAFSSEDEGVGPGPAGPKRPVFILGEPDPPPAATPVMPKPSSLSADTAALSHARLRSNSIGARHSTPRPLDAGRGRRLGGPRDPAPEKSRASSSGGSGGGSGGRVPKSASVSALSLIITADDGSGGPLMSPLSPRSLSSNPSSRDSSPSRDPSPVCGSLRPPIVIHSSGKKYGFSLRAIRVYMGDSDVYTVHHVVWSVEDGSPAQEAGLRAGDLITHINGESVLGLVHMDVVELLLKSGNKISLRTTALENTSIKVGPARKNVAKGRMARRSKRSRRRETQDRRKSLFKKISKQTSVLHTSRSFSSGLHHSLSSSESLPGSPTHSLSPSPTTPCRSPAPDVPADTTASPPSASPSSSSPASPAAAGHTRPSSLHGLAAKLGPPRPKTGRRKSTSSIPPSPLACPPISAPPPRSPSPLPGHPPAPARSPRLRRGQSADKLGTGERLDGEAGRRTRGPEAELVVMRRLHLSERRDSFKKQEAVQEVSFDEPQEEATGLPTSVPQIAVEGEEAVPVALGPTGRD
Sequence of MAP kinase-interacting serine/threonine-protein kinase 1 (Homo sapiens) (Q9BUB5 whole entry, looked up): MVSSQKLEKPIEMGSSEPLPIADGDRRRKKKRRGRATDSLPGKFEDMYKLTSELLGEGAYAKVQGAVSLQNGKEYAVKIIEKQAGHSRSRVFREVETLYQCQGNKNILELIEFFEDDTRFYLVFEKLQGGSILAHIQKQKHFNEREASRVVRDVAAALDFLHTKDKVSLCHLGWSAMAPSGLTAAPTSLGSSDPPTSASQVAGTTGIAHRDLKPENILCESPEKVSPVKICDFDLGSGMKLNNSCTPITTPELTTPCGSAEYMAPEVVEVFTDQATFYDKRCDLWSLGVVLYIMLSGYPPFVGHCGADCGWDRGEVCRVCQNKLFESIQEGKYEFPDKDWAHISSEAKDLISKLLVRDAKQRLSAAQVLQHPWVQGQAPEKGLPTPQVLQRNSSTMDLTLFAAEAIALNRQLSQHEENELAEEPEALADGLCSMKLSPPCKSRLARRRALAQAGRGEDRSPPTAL
Sequence of Platelet-derived growth factor receptor alpha (P16234 whole entry): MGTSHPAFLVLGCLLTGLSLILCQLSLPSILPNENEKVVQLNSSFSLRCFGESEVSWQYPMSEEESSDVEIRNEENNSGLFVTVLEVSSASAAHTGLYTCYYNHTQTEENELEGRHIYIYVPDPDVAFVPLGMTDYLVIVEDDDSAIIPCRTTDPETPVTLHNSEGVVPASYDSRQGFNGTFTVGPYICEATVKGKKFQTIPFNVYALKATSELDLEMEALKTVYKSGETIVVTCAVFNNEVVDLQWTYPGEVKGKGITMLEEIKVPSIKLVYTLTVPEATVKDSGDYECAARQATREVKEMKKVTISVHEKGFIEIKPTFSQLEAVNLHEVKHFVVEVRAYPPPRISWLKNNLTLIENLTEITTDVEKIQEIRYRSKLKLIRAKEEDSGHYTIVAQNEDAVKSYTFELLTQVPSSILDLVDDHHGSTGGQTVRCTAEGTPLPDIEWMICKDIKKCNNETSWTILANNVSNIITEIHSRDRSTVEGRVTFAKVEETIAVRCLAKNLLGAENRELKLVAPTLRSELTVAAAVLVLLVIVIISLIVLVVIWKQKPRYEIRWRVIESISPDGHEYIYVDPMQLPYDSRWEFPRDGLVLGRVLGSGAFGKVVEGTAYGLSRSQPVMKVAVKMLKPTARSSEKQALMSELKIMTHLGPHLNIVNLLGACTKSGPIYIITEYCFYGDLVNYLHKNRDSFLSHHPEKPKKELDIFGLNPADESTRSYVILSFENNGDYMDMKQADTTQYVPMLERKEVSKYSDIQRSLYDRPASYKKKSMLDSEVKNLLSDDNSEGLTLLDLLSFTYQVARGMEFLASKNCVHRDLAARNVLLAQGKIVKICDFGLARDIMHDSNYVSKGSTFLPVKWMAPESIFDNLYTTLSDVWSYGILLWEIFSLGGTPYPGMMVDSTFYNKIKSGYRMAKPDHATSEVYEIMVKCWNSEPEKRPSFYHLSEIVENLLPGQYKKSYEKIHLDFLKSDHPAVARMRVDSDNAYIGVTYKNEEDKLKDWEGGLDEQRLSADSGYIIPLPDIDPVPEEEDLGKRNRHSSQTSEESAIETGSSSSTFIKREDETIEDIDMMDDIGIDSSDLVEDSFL
Sequence of Fibroblast growth factor receptor 2 (Homo sapiens) (P21802 22-821 limits assumed): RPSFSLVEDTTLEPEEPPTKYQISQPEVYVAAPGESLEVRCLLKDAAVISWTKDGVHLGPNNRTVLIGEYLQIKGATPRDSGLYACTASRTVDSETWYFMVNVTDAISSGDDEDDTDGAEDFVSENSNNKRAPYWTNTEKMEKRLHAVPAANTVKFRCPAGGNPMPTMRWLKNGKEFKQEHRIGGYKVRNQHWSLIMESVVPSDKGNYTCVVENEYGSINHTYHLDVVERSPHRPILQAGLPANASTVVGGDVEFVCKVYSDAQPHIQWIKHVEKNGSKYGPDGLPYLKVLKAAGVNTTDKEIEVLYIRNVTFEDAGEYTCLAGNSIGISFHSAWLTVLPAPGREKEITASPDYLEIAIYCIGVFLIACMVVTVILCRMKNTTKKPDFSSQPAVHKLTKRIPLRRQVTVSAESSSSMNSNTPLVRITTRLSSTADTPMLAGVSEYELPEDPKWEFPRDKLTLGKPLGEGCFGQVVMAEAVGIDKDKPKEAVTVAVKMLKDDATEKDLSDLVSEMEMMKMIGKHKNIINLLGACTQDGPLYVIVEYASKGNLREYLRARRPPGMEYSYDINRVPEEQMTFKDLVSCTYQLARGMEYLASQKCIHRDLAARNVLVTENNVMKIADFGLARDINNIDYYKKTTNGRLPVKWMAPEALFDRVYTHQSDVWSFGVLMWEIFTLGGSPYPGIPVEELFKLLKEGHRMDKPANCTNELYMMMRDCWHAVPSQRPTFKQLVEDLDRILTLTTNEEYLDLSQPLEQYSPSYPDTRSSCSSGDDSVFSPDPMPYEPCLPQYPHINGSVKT
Sequence of Death-associated protein kinase 3 (Homo sapiens) (O43293 whole entry, looked up): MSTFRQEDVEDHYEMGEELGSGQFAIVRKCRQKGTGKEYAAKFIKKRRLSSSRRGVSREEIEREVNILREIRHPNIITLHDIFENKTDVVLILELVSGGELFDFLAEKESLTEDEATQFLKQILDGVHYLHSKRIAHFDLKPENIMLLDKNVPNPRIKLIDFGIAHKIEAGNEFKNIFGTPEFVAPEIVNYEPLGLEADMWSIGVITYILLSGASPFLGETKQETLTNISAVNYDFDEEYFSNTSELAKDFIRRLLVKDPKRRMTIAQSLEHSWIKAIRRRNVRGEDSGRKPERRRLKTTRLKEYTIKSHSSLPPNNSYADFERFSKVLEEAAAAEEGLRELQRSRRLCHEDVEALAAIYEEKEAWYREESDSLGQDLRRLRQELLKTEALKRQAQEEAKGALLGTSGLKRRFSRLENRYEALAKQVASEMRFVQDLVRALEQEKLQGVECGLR
Sequence of Sigma non-opioid intracellular receptor 1 (Homo sapiens) (Q99720 whole entry): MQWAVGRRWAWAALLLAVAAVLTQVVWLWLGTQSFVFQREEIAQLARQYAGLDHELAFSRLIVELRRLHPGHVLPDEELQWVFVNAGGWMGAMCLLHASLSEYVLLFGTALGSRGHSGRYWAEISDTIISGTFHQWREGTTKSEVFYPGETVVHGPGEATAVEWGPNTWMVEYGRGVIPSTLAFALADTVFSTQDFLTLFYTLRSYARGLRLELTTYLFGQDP
Sequence of Serine/threonine-protein kinase 24 (Homo sapiens) (Q9Y6E0 whole entry, looked up): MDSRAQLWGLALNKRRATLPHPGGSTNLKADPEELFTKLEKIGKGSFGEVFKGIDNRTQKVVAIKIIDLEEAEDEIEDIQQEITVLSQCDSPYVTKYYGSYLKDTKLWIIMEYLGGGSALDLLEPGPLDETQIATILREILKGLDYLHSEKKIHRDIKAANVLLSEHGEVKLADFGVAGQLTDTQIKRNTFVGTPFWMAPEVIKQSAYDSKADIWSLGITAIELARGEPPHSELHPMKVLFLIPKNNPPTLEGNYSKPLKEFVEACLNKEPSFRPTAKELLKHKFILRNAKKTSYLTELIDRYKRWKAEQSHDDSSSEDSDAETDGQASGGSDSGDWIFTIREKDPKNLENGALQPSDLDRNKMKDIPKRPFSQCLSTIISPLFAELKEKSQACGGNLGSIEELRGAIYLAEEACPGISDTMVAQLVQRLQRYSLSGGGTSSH

In the case of `CN(C)C/C=C/C(=O)Nc1ccc(C(=O)N2CCCC(Nc3ncc(Cl)c(-c4c[nH]c5ccccc45)n3)C2)cc1` (configuration not stated), the % of control in test [1] was 100%.

As to `CCN(CC)CCCCNc1ncc2cc(-c3cc(OC)cc(OC)c3)c(NC(=O)NC(C)(C)C)nc2n1`, the % of control in test [2] was found to be 100%.

With `Nc1cnc(N2CCc3cc(S(=O)(=O)Nc4c(F)cc(Cl)cc4F)cc(N4CCCC4=O)c32)nc1` [TP-020n], the % of control in [3] was 100%.

In test [4], `CC(=O)c1cc(-c2ccccc2OCC2CC2)c2ncccn12` had a % of control of 98%.

The compound `Cn1cc(-n2cnc3c(NCc4nc5cc(Cl)c(Cl)cc5[nH]4)nc(N4CCOCC4)nc32)cn1` gave a % of control in [5] of 6.71%.

In test [6], `CNCCN1CCC(c2cc(CN(C)C(=O)c3cccc(Oc4ccccc4)c3)ccn2)CC1` yielded a % activity of more than 90%.

On to `CNC(=O)Nc1ccc(-c2nc(N3CC4CCC(C3)O4)c3cnn(C4CCC5(CC4)OCCO5)c3n2)cc1`, for which the % of control in test [7] came out at 100%.

With `CC[C@@H]1[C@H](F)C(=O)N[C@@H]1COc1nccc2cc(C(N)=O)c(OC)cc12` [ZIMLOVISERTIB], the % of inhibition was 11.4% in test [8] (at 0.01 µM); 9.3% in [8] (at 0.04 µM); 2.6% in test [8] (at 0.2 µM); 4.8% in test [8] (at 1 µM); 32.1% in test [8] (at 5 µM); -3.82% in test [9].

Regarding `COCC(=O)NC/C=C/c1ccc2ncnc(Nc3ccc(Oc4ccc(C)nc4)c(C)c3)c2c1` [CP-724714], the % of control in test [10] came out at 98%.

In [11], `N#Cc1cccc(-c2c[nH]c3ncnc(N4CCOCC4)c23)c1` gave a % of control of 100%. The % of inhibition in test [12] is -2%.

In test [13], `O[C@H]1CC[C@H](Nc2ncc3nc(Nc4c(F)cc(F)cc4F)n([C@H]4CCOC4)c3n2)CC1` displayed a % of control of 88%.
